Entries after “also recorded” stand apart in the source; their conditions may differ. Where a SMILES comes first, the peptide text is derived from it. Bridges are numbered along the chain shown (N, C = ends).
Assays:
[1] = system: TRPV1; assay: Cooling of RhTx- or capsaicin-induced channel activation; assay type: cell-based; settings: RhTx at 1 μM
Description: (§1) As described in details in a previous report, macroscopic currents (in whole-cell, inside-out or outside-out configuration) as well as single-channel currents were recorded using a HEKA EPC10 amplifier with the PatchMaster software (HEKA). Both pipette solution and bath solution contained 130 mM NaCl, 3 mM HEPES and 0.2 mM EDTA (pH 7.2). All recordings were performed at room temperature unless otherwise stated. A holding potential of 0 mV was used from which a testing pulse to +80 mV was applied. Statistical difference was determined using the Student’s t-test, and indicated by ** when reaching the significance level P<0.001.

[2] = system: mTRPV1 point mutants at D602, Y632, T634 and L461; assay: Calcium imaging of mTRPV1 point mutants; assay type: cell-based, mouse; settings: glycine or alanine mutation; 10 μM RhTx, 10 μM capsaicin
From the text: TRPV1 and TRPV3 chimeras used in this study were generated by the overlapping extension method[54] and confirmed by DNA sequencing, as described previously. Briefly, to generate V1/3S, the primer pairs (5′-[…]-3′and 5′-[…]-3′) were used. To generate other TRPV1/TRPV3 chimeras, the enzyme cutting sites by MluI were made by the primer pair (5′-[…]-3′ and 5′-[…]-3′) for TRPV1 and the primer pair (5′-[…]-3′ and 5′-[…]-3′) for TRPV3. The enzyme cutting sites by PvuI were made by the primer pair (5′-[…]-3′ and 5′-[…]-3′) for TRPV1 and the primer pair (5′-[…]-3′ and 5′-[…]-3′) for TRPV3. The enzyme cutting sites by BsiWI were made by the primer pair (5′-[…]-3′ and 5′-[…]-3′) for TRPV1 and the primer pair (5′-[…]-3′ and 5′-[…]-3′) for TRPV3. […]
Mouse DRG neurons were acutely dissociated and maintained in a short-term primary culture according to procedures as previous descripted. […] Fluorescence images of DRG neurons and HEK-293T cells were acquired with an Olympus IX81 microscope with Hamamatsu C4742 charge-coupled device camera controlled by the MetaFluor Software (Molecular Devices). Fluo-4 was excited by a mercury vapour light source with a 500/20-nm excitation filter, while fluorescence emission was detected with a 535/30-nm emission filter. Fluorescence images were required with automated routines written in MetaMorph software (Molecular Devices) and analysed with Igor Pro (Wavemetrics).

[3] = system: Trpv1−/− mice; assay: Colonic temperature in TRPV1 knockout mice; assay type: in vivo, mouse; settings: Trpv1−/− mice n=3, intraperitoneal, 10 μmol kg^−1
Description: (§2) In vivo effects of RhTx on WT mice or Trpv1^−/− mice were examined according to protocols described previously. For the paw-licking assay, pain was induced in mice by intraplantar injection of 0.1% formalin, capsaicin (1 μmol per paw) or RhTx (1 μmol per paw). Each of the testing materials was dissolved in 100 μl saline. Control mice received the same volume of saline. Injected mice were placed individually into open polyvinyl cages (20 × 40 × 15 cm). Time spent licking the injected paw was recorded by a digital video camera during the following 40 min. For recording colonic temperature from WT or Trpv1^−/− mice, mice equipped with a copper-constantan thermocouple were individually placed in open polyvinyl cages. A data logger was connected to the thermocouple. Mice were injected intraperitoneally with 100 μl saline containing capsaicin or RhTx. The dose of capsaicin or RhTx was 10 μmol kg^−1 for these experiments. Mice in the control group received the same volume of saline.

[4] = system: mTRPV3; assay: Selectivity recording on mTRPV3; assay type: cell-based, mouse; settings: RhTx at 10 μM
Description: as §1
(§3) Supplementary Figure 3. […]
(§4) mTRPV2 (c), mTRPV3 (d) and mTRPV4 (e). (f) Treatment with 10 μM RhTx (red traces)

[5] = system: mTRPV2; assay: Selectivity recording on mTRPV2; assay type: cell-based, mouse; settings: RhTx at 10 μM
Description: as §1, §3, §4

[6] = system: mTRPV1 point mutants at D602, Y632, T634 and L461; assay: Whole-cell current of mTRPV1 point mutants; assay type: cell-based, mouse; settings: glycine or alanine mutation, both at 10 μM, +80 mV
From the text: TRPV1 and TRPV3 chimeras used in this study were generated by the overlapping extension method[54] and confirmed by DNA sequencing, as described previously. Briefly, to generate V1/3S, the primer pairs (5′-[…]-3′and 5′-[…]-3′) were used. To generate other TRPV1/TRPV3 chimeras, the enzyme cutting sites by MluI were made by the primer pair (5′-[…]-3′ and 5′-[…]-3′) for TRPV1 and the primer pair (5′-[…]-3′ and 5′-[…]-3′) for TRPV3. The enzyme cutting sites by PvuI were made by the primer pair (5′-[…]-3′ and 5′-[…]-3′) for TRPV1 and the primer pair (5′-[…]-3′ and 5′-[…]-3′) for TRPV3. The enzyme cutting sites by BsiWI were made by the primer pair (5′-[…]-3′ and 5′-[…]-3′) for TRPV1 and the primer pair (5′-[…]-3′ and 5′-[…]-3′) for TRPV3. V1/3M were generated by enzyme cut and paste between MluI and PvuI sites, while V1/3L were generated by enzyme cut and paste between MluI and BsiWI sites. V1_S1S2_1, V1_S1S2_3 and V1_S1S2_3 were generated as previously reported. […]
As described in details in a previous report, macroscopic currents (in whole-cell, inside-out or outside-out configuration) as well as single-channel currents were recorded using a HEKA EPC10 amplifier with the PatchMaster software (HEKA). […] Statistical difference was determined using the Student’s t-test, and indicated by ** when reaching the significance level P<0.001.

[7] = target: T1, mTRPV1 (Mus musculus, UniProt Q704Y3); assay: Whole-cell patch-clamp of mTRPV1 expressed in HEK293 cells; assay type: cell-based
T1 construct: expressed in transfected cells; host or cells: HEK-293T
From the text: TRPV1 and TRPV3 chimeras used in this study were generated by the overlapping extension method[54] and confirmed by DNA sequencing, as described previously. Briefly, to generate V1/3S, the primer pairs (5′-[…]-3′and 5′-[…]-3′) were used. To generate other TRPV1/TRPV3 chimeras, the enzyme cutting sites by MluI were made by the primer pair (5′-[…]-3′ and 5′-[…]-3′) for TRPV1 and the primer pair (5′-[…]-3′ and 5′-[…]-3′) for TRPV3. The enzyme cutting sites by PvuI were made by the primer pair (5′-[…]-3′ and 5′-[…]-3′) for TRPV1 and the primer pair (5′-[…]-3′ and 5′-[…]-3′) for TRPV3. The enzyme cutting sites by BsiWI were made by the primer pair (5′-[…]-3′ and 5′-[…]-3′) for TRPV1 and the primer pair (5′-[…]-3′ and 5′-[…]-3′) for TRPV3. V1/3M were generated by enzyme cut and paste between MluI and PvuI sites, while V1/3L were generated by enzyme cut and paste between MluI and BsiWI sites. V1_S1S2_1, V1_S1S2_3 and V1_S1S2_3 were generated as previously reported. All mTRPV1 point mutations were constructed using the QuickChange II XL site-directed mutagenesis kit following the manufacturer’s instruction. These point mutations were sequenced to confirm that appropriate constructs were made. HEK-293T cells were cultured and transiently transfected using Lipofectamine 2,000 (Invitrogen) as previously described.
as §1

[8] = system: mTRPV4; assay: Selectivity recording on mTRPV4; assay type: cell-based, mouse; settings: RhTx at 10 μM
Description: as §1, §3, §4

[9] = system: voltage-gated K channels; assay: Selectivity recording on voltage-gated K channels; assay type: cell-based; settings: 10 μM RhTx compared to toxin-free treatment
Description: as §3, §4

[10] = system: WT mice; assay: Paw-licking assay, intraplantar injection; assay type: in vivo, mouse; settings: 1 μmol per paw in 100 μl saline, 40 min observation
Description: as §2
Supplementary Figure 1. Centipede crude venom -induced paw licking. Pain behavior was induced in mice b y intraplan tar injection of centipede crude venom. After crude venom injection, mice were immediately placed individually into open polyvinyl cages (20 × 40 × 15 cm). The time spent licking the injected paw was recorded by digital video camera during 0- 10 minutes […]

[11] = system: WT mice; assay: Colonic temperature after intraperitoneal injection; assay type: in vivo, mouse; settings: WT mice n=6, intraperitoneal, 10 μmol kg^−1
Description: as §2

[12] = system: TRPV1; assay: RhTx-induced desensitization of TRPV1 heat activation, inside-out patch; assay type: cell-based; settings: 10 μM RhTx in patch pipette solution, inside-out patches, heating to 55 °C, n=8
From the text: For recording the RhTx-induced desensitization of TRPV1, temperature control was achieved by perfusion of preheated or room-temperature bathing solution. Hot bathing solution were maintained at expected temperature with an SH-27B in-line solution heater controlled by a TC-324C temperature controller (Warner). A solution exchanger RSC-200 with eight separate tubes to deliver room-temperature bathing solution and capsaicin. A TA-29 miniature bead thermistor (Harvard Apparatus) was placed right next to the pipette to ensure accurate monitoring of local temperature.

T1 sequence (Q704Y3 whole entry): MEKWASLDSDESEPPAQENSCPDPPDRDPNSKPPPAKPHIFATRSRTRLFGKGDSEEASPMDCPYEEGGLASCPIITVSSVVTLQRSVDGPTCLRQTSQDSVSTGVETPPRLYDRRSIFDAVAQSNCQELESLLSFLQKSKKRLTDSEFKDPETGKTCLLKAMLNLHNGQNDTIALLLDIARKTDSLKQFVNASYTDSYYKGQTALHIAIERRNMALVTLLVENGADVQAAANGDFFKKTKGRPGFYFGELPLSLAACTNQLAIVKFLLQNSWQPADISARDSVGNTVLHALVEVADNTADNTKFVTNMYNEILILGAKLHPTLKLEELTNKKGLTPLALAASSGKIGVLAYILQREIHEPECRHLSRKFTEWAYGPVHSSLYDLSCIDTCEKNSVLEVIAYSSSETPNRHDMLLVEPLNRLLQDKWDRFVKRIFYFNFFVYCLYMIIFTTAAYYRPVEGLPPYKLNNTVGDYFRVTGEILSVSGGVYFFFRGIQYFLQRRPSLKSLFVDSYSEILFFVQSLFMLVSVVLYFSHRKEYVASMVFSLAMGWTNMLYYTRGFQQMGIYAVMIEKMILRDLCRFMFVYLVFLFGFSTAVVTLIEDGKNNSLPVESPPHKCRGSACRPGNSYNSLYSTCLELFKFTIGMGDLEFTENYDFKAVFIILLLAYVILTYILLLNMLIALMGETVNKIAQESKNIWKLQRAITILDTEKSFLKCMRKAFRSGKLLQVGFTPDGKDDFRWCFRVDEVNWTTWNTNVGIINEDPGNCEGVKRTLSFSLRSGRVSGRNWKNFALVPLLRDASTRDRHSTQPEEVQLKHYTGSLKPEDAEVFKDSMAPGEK

**Q.** Which results are given for CC[C@H](C)[C@H](NC(=O)[C@@H]1CSSC[C@@H]2NC(=O)[C@H]([C@@H](C)O)NC(=O)[C@H](C(C)C)NC(=O)CNC(=O)[C@H](CC(N)=O)NC(=O)[C@@H](NC(=O)[C@@H]3CCCN3C(=O)[C@H](CC(N)=O)NC(=O)[C@H](CC(N)=O)NC(=O)[C@@H](N)CC(C)C)CSSC[C@H](NC(=O)[C@H](CCCNC(=N)N)NC(=O)[C@H](Cc3ccc(O)cc3)NC(=O)CNC(=O)[C@H](CO)NC(=O)[C@@H]3CCCN3C2=O)C(=O)N[C@@H](CO)C(=O)N[C@@H]([C@@H](C)CC)C(=O)N[C@@H](C(C)C)C(=O)N[C@@H](CC(=O)O)C(=O)N[C@@H](CCCCN)C(=O)N[C@@H](CCC(N)=O)C(=O)N1)C(=O)N[C@@H](CCCCN)C(=O)N[C@@H](CCCCN)C(=O)N[C@@H](CCC(=O)O)C(=O)O [RhTx] (H-LNNPCNGVTCPSGYRCSIVDKQCIKKE-OH; disulfide 5-16, 10-23; N-terminus and C-terminus assumed)?
**A.** effect of lowering the experimental temperature on agonist-induced channel activation [1]: completely prohibited; agonist-induced intracellular calcium increase in point mutants versus WT channel [2]: markedly reduced; core (colonic) temperature in knockout mice [3]: absent; response of TRPV3 [4]: no detectable effect; also recorded: no discernable response; response of TRPV2 [5]: no detectable effect; also recorded: no discernable response; agonist-induced current in point mutants versus WT channel [6]: markedly reduced; activation of mouse TRPV1 [7]: strongly activated; EC50 ([7]; SEM): 522 ± 162 nM; Hill slope ([7]; whole-cell mTRPV1 currents, Hill fit, average±s.e.m., n=10, SEM): 1.17±0.37; response of TRPV4 [8]: no detectable effect; also recorded: no discernable response; effect on voltage-gated K channels [9]: no detectable effect; also recorded: no discernable response; pain behaviour (paw licking) [10]: elicited similar pain behaviour; core (colonic) temperature [11]: rapid drop in core temperature; TRPV1 heat response after extended incubation with toxin [12]: selectively desensitized TRPV1 heat activation but not capsaicin activation; also recorded: incapable to respond to heat

From publication PMC4589873, “A pain-inducing centipede toxin targets the heat activation machinery of nociceptor TRPV1” (Nature Communications, 2015)
